From PubChem BioAssay AID220 (DTP/NCI, 2004)
Where “and” joins values, the source holds several entries; their conditions need not be identical. Identical values can stand only once. Records with an inconclusive call do not appear.

Test system: CD8F1 mice, subcutaneous mammary adenocarcinoma, T/C%
Test: NCI In Vivo Anticancer Drug Screen. Data for tumor model Mammary Adenocarcinoma CD8F1 (subcutaneous) in CD8F1
Details: higher = larger tumour
In short: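 Ratio of treated to vehicle-control outcome, based on either survival or tumor size, in mice bearing transplantable tumors given the test compound.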

[1] = endpoint: median tumor weight (est.), dose: 25.0 mg/kg/injection, schedule: Q07DX005 (ip), vehicle: saline
[2] = endpoint: median tumor weight (est.), dose: 50.0 mg/kg/injection, schedule: Q07DX005 (ip), vehicle: saline
[3] = endpoint: median tumor weight (est.), dose: 100.0 mg/kg/injection, schedule: Q07DX005 (ip), vehicle: saline
[4] = endpoint: median tumor weight (est.), dose: 25.0 mg/kg/injection, schedule: Q07DX005 (ip), vehicle: saline with Tween-80
[5] = endpoint: median tumor weight change, dose: 125.0 mg/kg/injection, schedule: Q01DX001 (ip), vehicle: saline

With [N-]=[N+]=CC(=O)CCC(N)C(=O)O (stereo not given) the T/C (endpoint: median tumor weight (est.), dose: 3.12 mg/kg/injection, schedule: Q04DX005 (ip), vehicle: saline) was 22 % of control and 43 % of control, the T/C (endpoint: median tumor weight (est.), dose: 6.25 mg/kg/injection, schedule: Q04DX005 (ip), vehicle: saline) was 31 % of control and 56 % of control and the T/C (endpoint: median tumor weight (est.), dose: 12.5 mg/kg/injection, schedule: Q04DX005 (ip), vehicle: saline) was 30 % of control and 50 % of control. The T/C (endpoint: median tumor weight (est.), dose: 12.5 mg/kg/injection, schedule: Q07DX004 (ip), vehicle: saline) was 85 % of control and 105 % of control, the T/C (endpoint: median tumor weight (est.), dose: 12.5 mg/kg/injection, schedule: Q07DX005 (ip), vehicle: saline) was 23 % of control and 30 % of control and the T/C (endpoint: median tumor weight (est.), dose: 25.0 mg/kg/injection, schedule: Q01DX001 (ip), vehicle: saline) was 35 % of control. For the same compound, the T/C (endpoint: median tumor weight (est.), dose: 25.0 mg/kg/injection, schedule: Q07DX004 (ip), vehicle: saline) was 23 % of control and 34 % of control, the T/C [1] was 47 % of control and the T/C (endpoint: median tumor weight (est.), dose: 50.0 mg/kg/injection, schedule: Q01DX001 (ip), vehicle: saline) was 35 % of control. The T/C (endpoint: median tumor weight (est.), dose: 50.0 mg/kg/injection, schedule: Q07DX004 (ip), vehicle: saline) was 21 % of control and 31 % of control, the T/C [2] was 16 % of control and 33 % of control and the T/C (endpoint: median tumor weight (est.), dose: 100.0 mg/kg/injection, schedule: Q01DX001 (ip), vehicle: saline) was 43 % of control. For the same compound, the T/C [3] was 6 % of control.
CC1c2ccccc2CC(CCN(C)C)c2ccccc21 (stereo not given) was tested, and the T/C (endpoint: median tumor weight change, dose: 1.95 mg/kg/injection, schedule: Q01DX001 (ip), vehicle: saline with Tween-80) was 76 % of control, the T/C (endpoint: median tumor weight change, dose: 3.9 mg/kg/injection, schedule: Q01DX001 (ip), vehicle: saline with Tween-80) was 71 % of control and the T/C (endpoint: median tumor weight change, dose: 7.8 mg/kg/injection, schedule: Q01DX001 (ip), vehicle: saline with Tween-80) was 87 % of control. For the same compound, the T/C (endpoint: median tumor weight change, dose: 15.62 mg/kg/injection, schedule: Q01DX001 (ip), vehicle: saline with Tween-80) was 73 % of control.
For [Cl][Hg][Cl], the T/C (endpoint: median tumor weight change, dose: 1.56 mg/kg/injection, schedule: Q01DX001 (ip), vehicle: saline) was 87 % of control and the T/C (endpoint: median tumor weight change, dose: 3.12 mg/kg/injection, schedule: Q01DX001 (ip), vehicle: saline) was 71 % of control.
For CN1C(=O)NC(c2ccc(Cl)cc2)(c2ccc(Cl)cc2)C1=O, the T/C (endpoint: median tumor weight change, dose: 125.0 mg/kg/injection, schedule: Q01DX001 (ip), vehicle: distilled water + Tween-80) was 98 % of control, the T/C (endpoint: median tumor weight change, dose: 250.0 mg/kg/injection, schedule: Q01DX001 (ip), vehicle: distilled water + Tween-80) was 80 % of control and the T/C (endpoint: median tumor weight change, dose: 500.0 mg/kg/injection, schedule: Q01DX001 (ip), vehicle: distilled water + Tween-80) was 70 % of control. The T/C (endpoint: median tumor weight change, dose: 1000.0 mg/kg/injection, schedule: Q01DX001 (ip), vehicle: distilled water + Tween-80) was 40 % of control.
O=S(=O)(c1ccccc1)N1CN2CCN(C2)C1 was tested, and the T/C [4] was 55 % of control and 72 % of control and the T/C (endpoint: median tumor weight (est.), dose: 200.0 mg/kg/injection, schedule: Q07DX005 (ip), vehicle: saline with Tween-80) was 66 % of control and 79 % of control.
For COC1OC(CO)C(O)C(NC(=O)N(C)N=O)C1O (stereo not given), the T/C [5] was 86 % of control.
Cc1cc(N(CC(C)Br)CC(C)Br)ccc1N=Nc1ccccc1C(=O)O (stereo not given) was tested, and the T/C (endpoint: median tumor weight (est.), dose: 1.56 mg/kg/injection, schedule: Q07DX005 (ip), vehicle: saline with Tween-80) was 79 % of control, the T/C (endpoint: median tumor weight (est.), dose: 3.12 mg/kg/injection, schedule: Q07DX005 (ip), vehicle: saline with Tween-80) was 94 % of control and the T/C (endpoint: median tumor weight (est.), dose: 6.25 mg/kg/injection, schedule: Q07DX005 (ip), vehicle: saline with Tween-80) was 68 % of control. For the same compound, the T/C (endpoint: median tumor weight (est.), dose: 12.5 mg/kg/injection, schedule: Q07DX005 (ip), vehicle: saline with Tween-80) was 47 % of control and the T/C [4] was 23 % of control.
With CCCC(=O)O.CCCC(=O)O.CCCC(=O)O.CCCC(=O)O.[Rh].[Rh] the T/C (endpoint: median tumor weight change, dose: 0.62 mg/kg/injection, schedule: Q01DX001 (ip), vehicle: saline + alcohol) was 116 % of control, the T/C (endpoint: median tumor weight change, dose: 1.25 mg/kg/injection, schedule: Q01DX001 (ip), vehicle: saline + alcohol) was 81 % of control and 90 % of control and the T/C (endpoint: median tumor weight change, dose: 2.5 mg/kg/injection, schedule: Q01DX001 (ip), vehicle: saline + alcohol) was 56 % of control.
With CCC1CC2CN(CCc3c([nH]c4ccccc34)C(C(=O)OC)(c3cc4c(cc3OC)N(C)C3C(O)(C(=O)OC)C(OC(C)=O)C5(CC)C=CCN6CCC43C65)C2)C1 (stereo not given) the T/C (endpoint: median tumor weight change, dose: 0.31 mg/kg/injection, schedule: Q01DX001 (ip), vehicle: suspension in saline) was 99 % of control, the T/C (endpoint: median tumor weight change, dose: 0.62 mg/kg/injection, schedule: Q01DX001 (ip), vehicle: saline) was 165 % of control and the T/C (endpoint: median tumor weight change, dose: 0.62 mg/kg/injection, schedule: Q01DX001 (ip), vehicle: suspension in saline) was 59 % of control. The T/C (endpoint: median tumor weight change, dose: 1.25 mg/kg/injection, schedule: Q01DX001 (ip), vehicle: saline) was 110 % of control, the T/C (endpoint: median tumor weight change, dose: 1.25 mg/kg/injection, schedule: Q01DX001 (ip), vehicle: suspension in saline) was 105 % of control and the T/C (endpoint: median tumor weight change, dose: 2.5 mg/kg/injection, schedule: Q01DX001 (ip), vehicle: suspension in saline) was 88 % of control. For the same compound, the T/C (endpoint: median tumor weight change, dose: 5.0 mg/kg/injection, schedule: Q01DX001 (ip), vehicle: saline) was 184 % of control, the T/C (endpoint: median tumor weight change, dose: 5.0 mg/kg/injection, schedule: Q01DX001 (ip), vehicle: suspension in saline) was 109 % of control and the T/C (endpoint: median tumor weight change, dose: 10.0 mg/kg/injection, schedule: Q01DX001 (ip), vehicle: saline) was 99 % of control. For the same compound, the T/C (endpoint: median tumor weight change, dose: 10.0 mg/kg/injection, schedule: Q01DX001 (ip), vehicle: suspension in saline) was 70 % of control.
For CCCCCCCCCCC(OC(C)=O)C1CCC(C2CCC(C(O)CCCCCCCCCCCCC3C=C(C)OC3=O)O2)O1 (stereo not given), the T/C (endpoint: median tumor weight change, dose: 1.25 mg/kg/injection, schedule: Q01DX001 (ip), vehicle: water) was 111 % of control, the T/C (endpoint: median tumor weight change, dose: 10.0 mg/kg/injection, schedule: Q01DX001 (ip), vehicle: other) was 76 % of control and the T/C (endpoint: median tumor weight change, dose: 10.0 mg/kg/injection, schedule: Q01DX001 (ip), vehicle: water) was 164 % of control. The T/C (endpoint: median tumor weight change, dose: 20.0 mg/kg/injection, schedule: Q01DX001 (ip), vehicle: other) was 41 % of control, the T/C (endpoint: median tumor weight change, dose: 40.0 mg/kg/injection, schedule: Q01DX001 (ip), vehicle: other) was 38 % of control and the T/C (endpoint: median tumor weight change, dose: 80.0 mg/kg/injection, schedule: Q01DX001 (ip), vehicle: other) was 38 % of control.
For O=C(NO)c1ccc(O)c(O)c1, the T/C (endpoint: median tumor weight change, dose: 300.0 mg/kg/injection, schedule: Q01DX001 (ip), vehicle: water) was 89 % of control and the T/C (endpoint: median tumor weight change, dose: 600.0 mg/kg/injection, schedule: Q01DX001 (ip), vehicle: water) was 48 % of control.
In the case of CN(C)CCC(=O)C(=Cc1ccc(O)cc1)C(=O)CCN(C)C, the T/C (endpoint: median tumor weight change, dose: 50.0 mg/kg/injection, schedule: Q01DX001 (ip), vehicle: suspension in saline) is reported as 96 % of control, the T/C (endpoint: median tumor weight change, dose: 62.5 mg/kg/injection, schedule: Q01DX001 (ip), vehicle: saline) is reported as 90 % of control and the T/C (endpoint: median tumor weight change, dose: 100.0 mg/kg/injection, schedule: Q01DX001 (ip), vehicle: suspension in saline) is reported as 87 % of control. The T/C [5] was 62 % of control.
For N=c1ccn2c(n1)OC1C(O)C(CO)OC12 (stereo not given), the T/C [1] was 80 % of control, the T/C [2] was 159 % of control and the T/C [3] was 111 % of control. For the same compound, the T/C (endpoint: median tumor weight (est.), dose: 100.0 mg/kg/injection, schedule: Q07DX005 (ip), vehicle: suspension in saline) was 81 % of control, the T/C (endpoint: median tumor weight (est.), dose: 200.0 mg/kg/injection, schedule: Q07DX005 (ip), vehicle: saline) was 53 % of control and the T/C (endpoint: median tumor weight (est.), dose: 200.0 mg/kg/injection, schedule: Q07DX005 (ip), vehicle: suspension in saline) was 109 % of control. For the same compound, the T/C (endpoint: median tumor weight (est.), dose: 400.0 mg/kg/injection, schedule: Q07DX005 (ip), vehicle: saline) was 22 % of control, the T/C (endpoint: median tumor weight (est.), dose: 400.0 mg/kg/injection, schedule: Q07DX005 (ip), vehicle: suspension in saline) was 70 % of control and the T/C (endpoint: median tumor weight (est.), dose: 600.0 mg/kg/injection, schedule: Q07DX005 (ip), vehicle: saline) was 21 % of control. For the same compound, the T/C (endpoint: median tumor weight (est.), dose: 800.0 mg/kg/injection, schedule: Q07DX005 (ip), vehicle: suspension in saline) was 52 % of control and the T/C (endpoint: median tumor weight (est.), dose: 1600.0 mg/kg/injection, schedule: Q07DX005 (ip), vehicle: suspension in saline) was 35 % of control.
CCCCC(C)(C(=O)OCC)C(=O)OCC was tested, and the T/C (endpoint: median tumor weight (est.), dose: 12.5 mg/kg/injection, schedule: Q07DX005 (ip), vehicle: Klucel (hydroxypropylcellulose) (HPC)) was 94 % of control, the T/C (endpoint: median tumor weight (est.), dose: 200.0 mg/kg/injection, schedule: Q07DX005 (ip), vehicle: Klucel (hydroxypropylcellulose) (HPC)) was 110 % of control and the T/C (endpoint: median tumor weight (est.), dose: 400.0 mg/kg/injection, schedule: Q07DX005 (ip), vehicle: Klucel (hydroxypropylcellulose) (HPC)) was 212 % of control.
